According to patent US4983602A, “3'-hydroxybenzoxazinorifamycin derivative, process for preparing the same and antibacterial agent containing the same” (Kanegafuchi Kagaku Kogyo Kabushiki Kaisha, priority 1988, dated 1991):
Converted amounts (≈) assume the structure as drawn.

Experiments:
[1] = tested on: Mycobacterium tuberculosis H37 Rv; experiment: Survival of mice infected with tuberculosis, groups of 10 (Tables 4 and 5); conditions: oral, 200 μg/mouse; for dead mice: fortieth day
[2] = tested on: Escherichia coli IFO 12734; experiment: Minimal inhibitory concentration, standard method of Japan Society of Chemotherapy; assay type: cell-based; conditions: IFO12734
[3] = tested on: Bacillus subtilis IFO 3134; experiment: as above; assay type: cell-based; conditions: IFO3134
[4] = tested on: Klebsiella pneumoniae IFO 3512; experiment: as above; assay type: cell-based; conditions: IFO3512
[5] = tested on: Micrococcus luteus IFO 12708; experiment: as above; assay type: cell-based; conditions: IFO12708
[6] = tested on: Mycobacterium smegmatis ATCC 607; experiment: as above; assay type: cell-based; conditions: Mycolicibacterium smegmatis, ATCC607
[7] = tested on: Staphylococcus aureus IFO 12732; experiment: as above; assay type: cell-based; conditions: IFO12732
[8] = tested on: Mycobacterium tuberculosis H37 Rv; experiment: Minimal inhibitory concentration against a tubercle bacillus; conditions: Kirchner liquid medium containing 10% bovine serum, 37° C., 4 weeks
[9] = tested on: Mycobacterium tuberculosis H37 Rv; experiment: Therapeutic effect on mice infected with tuberculosis, groups of 20 (FIG. 1); conditions: oral, 200 μg/mouse once a day, six days a week

Row | Compound | Survival rate ([1]; Table 5, control 0%) [%] | dead mice ([1]; Table 5 test) | MIC [2] [µg/mL] | MIC [3] [µg/mL] | MIC [4] [µg/mL] | MIC [5] [µg/mL] | MIC [6] [µg/mL] | MIC [7] [µg/mL] | Minimal inhibitory concentration [8] [µg/mL] | Survival rate ([1]; Table 4, control 30%) [%] | dead mice ([1]; Table 4 test) | therapeutic effect as compared with rifampicin (and derivative A) [9]
1 | CCCCN1CCN(c2cc(O)c3nc4c5c6c7c(C)c(O)c5c(=O)c(c-4oc3c2)NC(=O)C(C)=CC=CC(C)C(O)C(C)C(O)C(C)C(OC(C)=O)C(C)C(OC)C=COC(C)(O7)C6=O)CC1 (stereo not drawn) [Derivative No. 1] | 100 | there was not observed any dead mouse | > 10 | ≤ 0.02 | > 10 | ≤ 0.02 | 5 (≈ 5.31 µM) | ≤ 0.02 | 0.035 (≈ 0.0372 µM) | – | – | –
2 | COC1C=COC2(C)Oc3c(C)c(O)c4c(=O)c(c5oc6cc(N7CCN(CC8CC8)CC7)cc(O)c6nc-5c4c3C2=O)NC(=O)C(C)=CC=CC(C)C(O)C(C)C(O)C(C)C(OC(C)=O)C1C (stereo not drawn) [Derivative No. 3] | – | – | > 10 | ≤ 0.02 | > 10 | ≤ 0.02 | 2.5 (≈ 2.66 µM) | ≤ 0.02 | 0.017 (≈ 0.0181 µM) | 100 | there was not observed any dead mouse | –
3 | COC1C=COC2(C)Oc3c(C)c(O)c4c(=O)c(c5oc6cc(N7CCN(CC=C(C)C)CC7)cc(O)c6nc-5c4c3C2=O)NC(=O)C(C)=CC=CC(C)C(O)C(C)C(O)C(C)C(OC(C)=O)C1C (stereo not drawn) [Derivative No. 9] | – | – | > 10 | 0.08 (≈ 0.0839 µM) | > 10 | ≤ 0.02 | 2.5 (≈ 2.62 µM) | ≤ 0.02 | 0.035 (≈ 0.0367 µM) | 100 | there was not observed any dead mouse | –
4 | COC1C=COC2(C)Oc3c(C)c(O)c4c(=O)c(c5oc6cc(N7CCN(CC(C)C)CC7)cc(O)c6nc-5c4c3C2=O)NC(=O)C(C)=CC=CC(C)C(O)C(C)C(O)C(C)C(OC(C)=O)C1C (stereo not drawn) [Derivative No. 2] | – | – | > 10 | 0.04 (≈ 0.0425 µM) | > 10 | ≤ 0.02 | 2.5 (≈ 2.66 µM) | ≤ 0.02 | 0.017 (≈ 0.0181 µM) | 100 | there was not observed any dead mouse | excellent therapeutic effect as compared with rifampicin
5 | COC1C=COC2(C)Oc3c(C)c(O)c4c(=O)c(c5oc6cc(N7CCN(CCC(C)C)CC7)cc(O)c6nc-5c4c3C2=O)NC(=O)C(C)=CC=CC(C)C(O)C(C)C(O)C(C)C(OC(C)=O)C1C (stereo not drawn) [Derivative No. 5] | – | – | > 10 | 0.16 (≈ 0.168 µM) | > 10 | ≤ 0.02 | 5 (≈ 5.23 µM) | ≤ 0.02 | 0.07 (≈ 0.0733 µM) | 100 | there was not observed any dead mouse | –
6 | COC1C=COC2(C)Oc3c(C)c(O)c4c(=O)c(c5oc6cc(N7CCCCC7)ccc6nc-5c4c3C2=O)NC(=O)C(C)=CC=CC(C)C(O)C(C)C(O)C(C)C(OC(C)=O)C1C (stereo not drawn) [derivative B] | – | – | – | – | – | – | – | – | – | – | – | inferior to rifampicin
7 | CO[C@H]1/C=C/O[C@@]2(C)Oc3c(C)c(O)c4c(O)c(c(/C=N/N5CCN(C)CC5)c(O)c4c3C2=O)NC(=O)/C(C)=C\C=C\[C@H](C)[C@H](O)[C@@H](C)[C@@H](O)[C@@H](C)[C@H](OC(C)=O)[C@@H]1C [Rifampicin, reference compound] | 40 | – | – | – | – | – | – | – | 0.6 (≈ 0.729 µM) | 80 | – | –
8 | CCc1c(N2CCCC2)ccc2nc3c4c5c6c(C)c(O)c4c(=O)c(c-3oc12)NC(=O)C(C)=CC=CC(C)C(O)C(C)C(O)C(C)C(OC(C)=O)C(C)C(OC)C=COC(C)(O6)C5=O (stereo not drawn) [derivative C] | – | – | – | – | – | – | – | – | – | – | – | inferior to rifampicin
9 | C=CCN1CCN(c2cc(O)c3nc4c5c6c7c(C)c(O)c5c(=O)c(c-4oc3c2)NC(=O)C(C)=CC=CC(C)C(O)C(C)C(O)C(C)C(OC(C)=O)C(C)C(OC)C=COC(C)(O7)C6=O)CC1 (stereo not drawn) [Derivative No. 7] | – | – | > 10 | 0.04 (≈ 0.0432 µM) | > 10 | ≤ 0.02 | 2.5 (≈ 2.7 µM) | ≤ 0.02 | 0.035 (≈ 0.0378 µM) | 100 | there was not observed any dead mouse | –
10 | COC1C=COC2(C)Oc3c(C)c(O)c4c(=O)c(c5oc6cc(N7CCN(C(C)(C)C)CC7)cc(O)c6nc-5c4c3C2=O)NC(=O)C(C)=CC=CC(C)C(O)C(C)C(O)C(C)C(OC(C)=O)C1C (stereo not drawn) [Derivative No. 6] | 100 | there was not observed any dead mouse | > 10 | ≤ 0.02 | > 10 | ≤ 0.02 | 1.25 (≈ 1.33 µM) | ≤ 0.02 | 0.008 (≈ 0.0085 µM) | – | – | –
11 | COC1C=COC2(C)Oc3c(C)c(O)c4c(=O)c(c5oc6cc(N7CCN8CCCC8C7)cc(O)c6nc-5c4c3C2=O)NC(=O)C(C)=CC=CC(C)C(O)C(C)C(O)C(C)C(OC(C)=O)C1C (stereo not drawn) [Derivative No. 10] | – | – | 10 (≈ 10.8 µM) | ≤ 0.02 | 10 (≈ 10.8 µM) | ≤ 0.02 | 2.5 (≈ 2.7 µM) | ≤ 0.02 | 0.15 (≈ 0.162 µM) | 100 | there was not observed any dead mouse | –
12 | C=CCCN1CCN(c2cc(O)c3nc4c5c6c7c(C)c(O)c5c(=O)c(c-4oc3c2)NC(=O)C(C)=CC=CC(C)C(O)C(C)C(O)C(C)C(OC(C)=O)C(C)C(OC)C=COC(C)(O7)C6=O)CC1 (stereo not drawn) [Derivative No. 8] | 100 | there was not observed any dead mouse | > 10 | ≤ 0.02 | > 10 | ≤ 0.02 | 2.5 (≈ 2.66 µM) | ≤ 0.02 | 0.017 (≈ 0.0181 µM) | – | – | –
13 | CCC(C)N1CCN(c2cc(O)c3nc4c5c6c7c(C)c(O)c5c(=O)c(c-4oc3c2)NC(=O)C(C)=CC=CC(C)C(O)C(C)C(O)C(C)C(OC(C)=O)C(C)C(OC)C=COC(C)(O7)C6=O)CC1 (stereo not drawn) [Derivative No. 4] | 100 | there was not observed any dead mouse | > 10 | ≤ 0.02 | > 10 | ≤ 0.02 | 1.25 (≈ 1.33 µM) | ≤ 0.02 | 0.017 (≈ 0.0181 µM) | – | – | –
